Literature values as cited in US6171786A, “Methods for preventing multidrug resistance in cancer cells” (priority 1996, dated 2001).

Legend:
[1] = tested on: hormone-refractory prostate cancer; conditions: continuous infusion, peak of 300 μg/mL at end of 14 days; cited from earlier work
[2] = clinical trials; Berdel et al., 1988; cited from earlier work

Compound | activity in hormone-refractory prostate cancer [1] | MTD, oral administration [2] [mg/day]
Cc1ccc(C(=O)Nc2ccc(S(=O)(=O)O)c3cc(S(=O)(=O)O)cc(S(=O)(=O)O)c23)cc1NC(=O)c1cccc(NC(=O)Nc2cccc(C(=O)Nc3cc(C(=O)Nc4ccc(S(=O)(=O)O)c5cc(S(=O)(=O)O)cc(S(=O)(=O)O)c45)ccc3C)c2)c1 [suramin] | has shown activity in hormone-refractory prostate cancer | 
CCCCCCCCCCCCCCCCSCC(COC)COP(=O)([O-])OCC[N+](C)(C)C (centres unmarked) [ilmofosine] |  | 200
